Data from US9326539B2, “Compositions comprising dietary fat complexers and methods for their use” (Soho Flordis International Pty. Ltd., priority 2002, dated 2016).

How the values were obtained:
[1] = volunteers fed high fat breakfast: serum triglyceride levels; assay type: in vivo, human
Experimental: To determine the effect of α-cyclodextrin on triglyceride levels, eight volunteers were fed on two consecutive days a two-egg cheese (54 g) omelet and a milkshake containing a total of 47 g of fat after an overnight fast. On the first day the meal also contained approximately 5 g of α-cyclodextrin. Blood samples (10 ml) from each volunteer taken via an in-dwelling venous catheter immediately prior the meal (zero-time) and at 1, 2 and 3 hours after the meal was consumed and were assayed for serum triglyceride levels. The zero-time sample were used as the baseline to calculate the percentage change in blood serum triglyceride levels of the human volunteers at one, two and three hours. FIG. 7 illustrates the data collected from the volunteers.
FIG. 7 also contains data from three of the volunteers who had partaken in an earlier two-hour study with a smaller meal (denoted “*”).

[2] = Wistar rat feeding study: plasma glucose, cholesterol, triglyceride, insulin resistance; assay type: in vivo, Wistar rats
Text: (§1) The rats were housed as pairs for five weeks prior to being placed in individual metabolic cages for the sixth week of the study. All of the rats' feces were collected during the final three days of the study. At the end of the sixth week of the study period the rats were sacrificed by decapitation after a brief exposure to carbon dioxide gas. Trunk blood and the livers were collected from each animal. The rest of the body was eviscerated and all visible fat from the internal cavity was collected and weighed. The carcass was frozen for body composition analysis at a later date.
The plasma glucose, cholesterol and triglyceride concentrations were measured on all of the sacrificed animals using standard clinical laboratory techniques as may be found in Tietz Textbook of Clinical Chemistry, second edition. Burtis C A and Ashwood E R eds., W.B. Saunders Company A Division of Harcourt Brace & Company, 1994, Philadelphia incorporated herein by reference. (FIG. 5). On average the α-cyclodextrin appeared to have decreased the plasma total cholesterol levels by about 10%. This decrease was not statistically significant over this short study period; we expect that with longer feeding period, cholesterol levels will continue to decline. […] LDL cholesterol levels on all of the animals were too low to measure reliably since in rats the majority of the cholesterol is carried in the HDL-cholesterol fraction, and very little is carried in the LDL-cholesterol fraction.
Increased insulin resistance, elevated blood triglycerides and reduced HDL cholesterol levels are all the risk factors of Syndrome X. Insulin/glucose ratios as well as triglyceride/HDL ratios were calculated to provide indications about insulin resistance and risk of Syndrome X. (Szejtli J. Mater. Chem. 1997; 7:575-587 incorporated herein by reference). […] The reduction in triglyceride/HDL cholesterol ratios by α-cyclodextrin indicated a significant decrease in the risk for Syndrome X.

[3] = target: T1, porcine pancreatic lipase (Sus scrofa, UniProt P00591); assay: lipolytic activity of porcine pancreatic lipase on purified olive oil premixed with α-cyclodextrin; assay type: biochemical
T1 sequence (P00591 1-450): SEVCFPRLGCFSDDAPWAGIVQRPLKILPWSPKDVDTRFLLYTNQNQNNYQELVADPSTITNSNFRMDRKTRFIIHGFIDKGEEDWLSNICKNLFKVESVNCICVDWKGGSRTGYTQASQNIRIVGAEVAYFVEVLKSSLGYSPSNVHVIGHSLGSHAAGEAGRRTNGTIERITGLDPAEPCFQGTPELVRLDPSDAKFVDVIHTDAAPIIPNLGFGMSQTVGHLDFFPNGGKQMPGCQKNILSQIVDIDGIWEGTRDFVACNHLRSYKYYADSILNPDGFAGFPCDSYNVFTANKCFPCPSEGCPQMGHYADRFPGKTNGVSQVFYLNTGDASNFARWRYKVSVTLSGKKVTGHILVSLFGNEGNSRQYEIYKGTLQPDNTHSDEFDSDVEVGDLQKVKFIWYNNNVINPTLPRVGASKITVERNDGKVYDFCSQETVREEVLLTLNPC
Text: If this were the case it would be difficult to imagine being able to feed enough of the α-cyclodextrin to an animal in order to complex sufficient triglycerides to make a significant difference in body weight as triglycerides and α-cyclodextrin have similar molecular weights. However, from the data disclosed herein wherein e.g., a diet comprising 4% α-cyclodextrin and 40% fat inhibits weight gain and reduces body fat mass, as the molecular weights are very similar, we have calculated that one α-cyclodextrin molecule can complex approximately nine molecules of triglyceride, the equivalent of 27 free fatty acids. Thus we can convert this directly to I gram of α-cyclodextrin complexes approximately 9 grams of triglyceride. […] As these particles are formed in the midst of chyme, a very complex “soup”, the particles may be analogous to lipoprotein particles of the blood stream.

[4] = cited from earlier work
[5] = Wistar rat feeding study: fecal fat content (total lipid of feces); assay type: in vivo, Wistar rats; settings: collected feces, final three days
Text: as §1
Total lipid determinations were performed on the collected feces using standard techniques Folch et al. J Biol. Chem 226: 497-509 (1957) incorporated by reference. […] On average this increase was approximately 25%. […] The latter observation was confirmed by visual inspection of the feces.

[6] = two additional volunteers, about 2 g α-cyclodextrin per meal: cholesterol, LDL, cholesterol/HDL, triglycerides; assay type: in vivo, human
Experimental: α-cyclodextrin was also added to the diet of two additional volunteers. The α-cyclodextrin was added in a proportion such that each meal comprised about 2 g of α-cyclodextrin. Table 3 sets forth the effects of the α-cyclodextrin on reducing the levels of cholesterol, LDL, cholesterol/HDL ratio and serum triglycerides. It is of note that both of these volunteers, as well as the initial volunteer, had been and still were taking one of the statin pharmaceuticals for lowering their blood serum cholesterol. All three volunteers were taking different statins. In addition volunteer one was taking 3 g/d niacin which they reduced by 50% in the first two weeks of the study because of the unpleasant side effects of this medication.

[7] = volunteer one, 2.5 months, on statin and niacin
[8] = volunteer two, 6 months, on statin

OC[C@H]1O[C@@H]2O[C@H]3[C@H](O)[C@@H](O)[C@@H](O[C@H]4[C@H](O)[C@@H](O)[C@@H](O[C@H]5[C@H](O)[C@@H](O)[C@@H](O[C@H]6[C@H](O)[C@@H](O)[C@@H](O[C@H]7[C@H](O)[C@@H](O)[C@@H](O[C@H]1[C@H](O)[C@H]2O)O[C@@H]7CO)O[C@@H]6CO)O[C@@H]5CO)O[C@@H]4CO)O[C@@H]3CO [α-cyclodextrin]
increase in serum triglyceride levels after meal ([1]; eight volunteers, meal with 47 g fat and approximately 5 g α-cyclodextrin, 1, 2 and 3 hours, p<0.08): less | change in triglyceride levels after meal ([1]; three volunteers, earlier two-hour study with smaller meal): less | triglyceride/HDL cholesterol ratios ([2]; 6 week study): reduction | decrease of HDL cholesterol ([2]; at sacrifice): 6-8% | plasma glucose levels ([2]; at sacrifice): not affected significantly | reduction of plasma triglyceride levels ([2]; at sacrifice, p<0.05): about 30% | decrease of plasma total cholesterol ([2]; on average, at sacrifice, not statistically significant): about 10% | lipolytic activity of porcine pancreatic lipase [3]: significantly reduced | weight gain of rats versus control diet ([4]; JP 05-298849, diet with 16% a-cyclodextrin, or 1% linolenic acid, or 14% α-cyclodextrin and 2% linolenic acid): gain weight approximately the same as rats fed a control diet | body weight gain of rats versus control diets ([4]; Kaewprasert et al. 2001, 5% α-cyclodextrin diet, cyclodextrin:fat about 1:1.4): not significantly different | weight gain of rats ([4]; S60-149752, diet with 14% w/w α-cyclodextrin, or 14% w/w α-cyclodextrin and 0.5% w/w linolenic acid): little effect on weight gain | visual inspection of feces [5]: no indication of diarrhea | Cholesterol (change) [6, 7]: −18.5% | Cholesterol/HDL (change) [6, 7]: −16.1% | LDL (change) [6, 7]: −25.6% | TG (change) [6, 7]: −22.2% | Cholesterol (change) [6, 8]: −10.2% | Cholesterol/HDL (change) [6, 8]: −8.8% | LDL (change) [6, 8]: −15.0 | TG (change) [6, 8]: −37.5%
